Values of other authors as cited in patent US11450405B2, “Techniques for modeling parathyroid gland functionality and calcimimetic drug activity” (Fresenius Medical Care Holdings, Inc., priority 2018, dated 2022).
Where two headings read alike, the source gives them in different places.

Columns and labels:
[1] = for effect of hemodialysis on the pharmacokinetics: hemodialysis patients
[2] = test system: PTH concentration; conditions: after the administration of cinacalcet
[3] = listed as Cinacalcet hydrochloride

C[C@@H](NCCCc1cccc(C(F)(F)F)c1)c1cccc2ccccc12 [cinacalcet]
bio-availability on administration with food ([1]; administration with food): higher | peak concentrations on administration with food ([1]; administration with food): higher | total exposure values on administration with food ([1]; administration with food): higher | time at which plasma concentration peaks ([1]; following oral administration): 2 to 6 h | effect of hemodialysis on the pharmacokinetics [1]: negligible | effect of hemodialysis on the pharmacokinetics [1, 3]: not altered | higher terminal half-life values in hepatic impairment ([1]; moderate to severe hepatic impairment): 40-70% | absolute bioavailability ([1]; oral administration): 20-25% | absorption ([1]; oral administration): ~100% | Bio (bioavailability), reference range ([1]; single 75 mg dose): 20-25% | VD, reference range ([1]; single 75 mg dose): 1000 to 1250 L | half-life of distribution t1/2^D, reference value ([1]; single 75 mg dose): 6 h | terminal half-life, reference range ([1]; single 75 mg dose): 30 to 40 h | tmax, reference range ([1]; single 75 mg dose): 1 to 6 h | Cmax, mean reference value ([1]; single 75 mg dose, SD 9.4): 0.0266 µg/mL | mean apparent oral clearance rate CL/F ([1]; single 75 mg dose, SD 148): 314 L/h | apparent oral clearance rate CL/F (target) ([1]; single oral dose of 75 mg): around 314 L/h | apparent volume of distribution at steady state VD (target) ([1]; single oral dose of 75 mg): around 1000 L | distribution half-life tD (target) ([1]; single oral dose of 75 mg): 6 h | time until the maximum plasma concentration is reached (target) ([1]; single oral dose of 75 mg): around 2.3 hours | volume of distribution at steady state ([1]; steady state): 1000 L | fraction of the drug in the plasma that is protein bound: Around 95% | fraction of the drug in the plasma that is protein bound [3]: ~95% | time after dosing at which PTH concentration reaches a minimum [2]: 2 to 3 h
